Data reported in ChEMBL document CHEMBL1909046, “DrugMatrix in vitro pharmacology data”.
pIC50, pKi: −log10 of the molar value.

Key:
[1] = DRUGMATRIX: Platelet-Derived Growth Factor (PDGF) radioligand binding (ligand: [125I] PDGF); format: cell-based; settings: nih3t3; Not Active = under 50% inhibition at 10 µM
[2] = target: Platelet-activating factor receptor (Homo sapiens, UniProt P25105); format: tissue-based; further: in other assays of this panel Not Active means under 50% inhibition at 10 µM
Melanocortin receptor 3 = Melanocortin receptor 3 (Homo sapiens, UniProt P41968); format: cell membranes, Membrane; settings: hek293; further: in other assays of this panel Not Active means under 50% inhibition at 10 µM
[3] = target: Sodium-dependent dopamine transporter (Homo sapiens, UniProt Q01959); experiment: DRUGMATRIX: Dopamine Transporter radioligand binding (ligand: [125I] RTI-55); format: cell membranes, CHO-K1, Membrane; settings: cho-k1; Not Active = under 50% inhibition at 10 µM
[4] = DRUGMATRIX: Tumor Necrosis Factor (TNF), Non-Selective radioligand binding (ligand: [125I] TNF-alpha); format: cell membranes, Membrane; settings: u-937; Not Active = under 50% inhibition at 10 µM
[5] = target: Epidermal growth factor receptor (Homo sapiens, UniProt P00533); experiment: DRUGMATRIX: Protein Tyrosine Kinase, EGF Receptor enzyme inhibition (substrate: Poly(Glu:Tyr)); format: cell-based, Insect cells; settings: insect cells, Not Active = under 50% inhibition at 10 µM
Substance-K receptor = target: T1, Substance-K receptor (Homo sapiens, UniProt P21452); format: cell membranes, CHO, Membrane; further: in other assays of this panel Not Active means under 50% inhibition at 10 µM
T1 sequence (P21452 whole entry): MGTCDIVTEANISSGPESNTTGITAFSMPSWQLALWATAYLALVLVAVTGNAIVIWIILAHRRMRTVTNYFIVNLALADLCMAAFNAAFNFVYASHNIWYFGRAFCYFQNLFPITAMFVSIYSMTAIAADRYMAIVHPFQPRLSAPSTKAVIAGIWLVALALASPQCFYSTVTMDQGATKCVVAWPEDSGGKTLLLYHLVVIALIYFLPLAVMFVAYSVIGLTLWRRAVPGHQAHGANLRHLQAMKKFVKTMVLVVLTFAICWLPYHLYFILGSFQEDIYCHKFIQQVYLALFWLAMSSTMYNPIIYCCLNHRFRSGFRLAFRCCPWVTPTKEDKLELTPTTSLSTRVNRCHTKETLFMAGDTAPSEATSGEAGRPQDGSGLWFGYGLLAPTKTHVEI

Sodium-dependent dopamine transporter, sequence (Q01959 whole entry): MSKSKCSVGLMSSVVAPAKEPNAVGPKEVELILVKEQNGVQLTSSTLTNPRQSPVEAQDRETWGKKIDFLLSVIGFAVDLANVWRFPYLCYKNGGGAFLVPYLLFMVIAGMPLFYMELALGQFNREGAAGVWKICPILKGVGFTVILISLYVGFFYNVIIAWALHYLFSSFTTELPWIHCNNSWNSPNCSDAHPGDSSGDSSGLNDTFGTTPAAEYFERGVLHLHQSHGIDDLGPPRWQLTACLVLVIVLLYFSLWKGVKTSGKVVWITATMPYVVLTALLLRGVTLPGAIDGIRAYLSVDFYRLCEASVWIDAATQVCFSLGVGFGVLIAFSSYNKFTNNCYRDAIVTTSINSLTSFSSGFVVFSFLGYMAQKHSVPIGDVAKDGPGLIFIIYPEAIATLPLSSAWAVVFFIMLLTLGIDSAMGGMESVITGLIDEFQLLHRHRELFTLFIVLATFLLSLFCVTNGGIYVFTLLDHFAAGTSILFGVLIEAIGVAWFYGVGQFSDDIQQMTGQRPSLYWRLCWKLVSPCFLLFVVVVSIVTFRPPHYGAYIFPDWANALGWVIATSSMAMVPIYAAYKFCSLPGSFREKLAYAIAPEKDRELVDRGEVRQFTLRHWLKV
Melanocortin receptor 3, sequence (P41968 whole entry): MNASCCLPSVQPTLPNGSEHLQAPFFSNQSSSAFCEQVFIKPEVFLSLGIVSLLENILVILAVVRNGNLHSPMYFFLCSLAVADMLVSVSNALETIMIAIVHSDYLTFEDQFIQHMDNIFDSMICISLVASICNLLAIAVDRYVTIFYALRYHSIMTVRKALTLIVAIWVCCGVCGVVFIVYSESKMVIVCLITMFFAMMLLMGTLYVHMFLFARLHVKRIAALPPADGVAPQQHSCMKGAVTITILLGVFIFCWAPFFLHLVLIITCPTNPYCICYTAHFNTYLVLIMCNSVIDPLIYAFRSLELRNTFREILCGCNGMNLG
Platelet-activating factor receptor, sequence (P25105 whole entry): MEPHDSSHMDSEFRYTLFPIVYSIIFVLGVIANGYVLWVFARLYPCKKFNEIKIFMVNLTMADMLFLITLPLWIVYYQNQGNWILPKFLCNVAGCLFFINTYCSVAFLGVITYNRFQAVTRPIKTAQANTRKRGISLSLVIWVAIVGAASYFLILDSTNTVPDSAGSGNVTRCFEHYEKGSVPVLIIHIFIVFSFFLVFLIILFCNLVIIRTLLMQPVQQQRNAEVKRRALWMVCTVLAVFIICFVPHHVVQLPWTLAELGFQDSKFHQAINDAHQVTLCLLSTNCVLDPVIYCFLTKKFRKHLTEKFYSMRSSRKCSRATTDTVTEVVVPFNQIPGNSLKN

Compound | IC50 [1] | Ki [1] | IC50 [2] | IC50 (Melanocortin receptor 3) | IC50 [3] | IC50 [4] | Ki [4] | IC50 [5] | IC50 (Substance-K receptor; cho) | pIC50 (Substance-K receptor; read-out: IC50) | pKi (Substance-K receptor; read-out: Ki) | Ki [2] | Ki (Melanocortin receptor 3) | Ki [3] | pIC50 ([5]; read-out: IC50) | Ki (Substance-K receptor; cho)
CCCC(CCC)C(=O)O [VALPROIC ACID] | Not Active | Not Active | Not Active | Not Active | Not Active | Not Active | Not Active | Not Active | Not Active | – | – | – | – | – | – | –
CCC1=C[C@@H]2CN(C1)Cc1c([nH]c3ccccc13)[C@@](C(=O)OC)(c1cc3c(cc1OC)N(C)[C@H]1[C@@](O)(C(=O)OC)[C@H](OC(C)=O)[C@]4(CC)C=CCN5CC[C@]31[C@@H]54)C2 [VINORELBINE] | Not Active | Not Active | Not Active | Not Active | Not Active | Not Active | Not Active | Not Active | – | 5.79 | 6.27 | – | – | – | – | –
CADMIUM DICHLORIDE | Not Active | Not Active | Not Active | Not Active | Not Active | Not Active | Not Active | – | Not Active | – | – | Not Active | Not Active | Not Active | 6.31 | Not Active
